We go through 8 molecules from ChEMBL document CHEMBL2074191, “Electrophysiological characteristics of the proton-coupled peptide transporter PEPT2 cloned from rat brain” (Am J Physiol, 1998).

Residues, ends and D or L forms follow the SMILES beside them.

Holding throughout (format): functional, cell-based
Data set [1] deals with T1, Solute carrier family 15 member 2 (Rattus norvegicus) (UniProt Q63424).
T1 sequence (whole entry): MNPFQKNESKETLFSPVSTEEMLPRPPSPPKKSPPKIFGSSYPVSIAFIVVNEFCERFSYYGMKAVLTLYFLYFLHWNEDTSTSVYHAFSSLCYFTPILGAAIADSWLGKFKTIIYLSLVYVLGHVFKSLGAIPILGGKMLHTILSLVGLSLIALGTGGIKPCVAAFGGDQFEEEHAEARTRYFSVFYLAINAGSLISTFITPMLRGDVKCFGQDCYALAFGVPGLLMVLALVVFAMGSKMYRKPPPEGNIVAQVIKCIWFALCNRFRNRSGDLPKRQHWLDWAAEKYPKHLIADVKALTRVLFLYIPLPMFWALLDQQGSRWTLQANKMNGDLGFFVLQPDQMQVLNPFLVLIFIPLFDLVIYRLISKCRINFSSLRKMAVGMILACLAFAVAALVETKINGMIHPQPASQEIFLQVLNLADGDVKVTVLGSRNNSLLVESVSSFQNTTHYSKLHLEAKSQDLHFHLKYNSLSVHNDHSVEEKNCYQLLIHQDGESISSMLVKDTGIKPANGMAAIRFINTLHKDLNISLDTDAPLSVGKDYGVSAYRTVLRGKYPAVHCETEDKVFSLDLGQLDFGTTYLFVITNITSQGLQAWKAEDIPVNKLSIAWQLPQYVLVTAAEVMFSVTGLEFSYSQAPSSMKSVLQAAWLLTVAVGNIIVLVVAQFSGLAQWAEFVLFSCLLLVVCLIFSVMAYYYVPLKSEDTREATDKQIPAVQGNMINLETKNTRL
Put plainly: (§1) TP_TRANSPORTER: uptake in PEPT2-expressing HeLa cells.

Data set [2] has as its target T1, Solute carrier family 15 member 2 (Rattus norvegicus). Put plainly: TP_TRANSPORTER: inhibition of Gly-Sar uptake (Gly-Sar: 30 uM, Ala-Lys: 500 uM) in PEPT2-expressing SK-N-SH cells.
For data set [3] the target is unchanged. Nature of the data set: TP_TRANSPORTER: inhibition of Gly-Sar uptake (Gly-Sar: 30 uM, Ala-Glu: 500 uM) in PEPT2-expressing SK-N-SH cells.
Data set [4] has the same target. Nature of the data set: TP_TRANSPORTER: inhibition of Gly-Sar uptake (Gly-Sar: 30 uM, Ala-Val: 500 uM) in PEPT2-expressing SK-N-SH cells.
The target of data set [5] is T2, Solute carrier family 15 member 2 (Rattus norvegicus, UniProt Q63424).
T2 sequence (Q63424 whole entry): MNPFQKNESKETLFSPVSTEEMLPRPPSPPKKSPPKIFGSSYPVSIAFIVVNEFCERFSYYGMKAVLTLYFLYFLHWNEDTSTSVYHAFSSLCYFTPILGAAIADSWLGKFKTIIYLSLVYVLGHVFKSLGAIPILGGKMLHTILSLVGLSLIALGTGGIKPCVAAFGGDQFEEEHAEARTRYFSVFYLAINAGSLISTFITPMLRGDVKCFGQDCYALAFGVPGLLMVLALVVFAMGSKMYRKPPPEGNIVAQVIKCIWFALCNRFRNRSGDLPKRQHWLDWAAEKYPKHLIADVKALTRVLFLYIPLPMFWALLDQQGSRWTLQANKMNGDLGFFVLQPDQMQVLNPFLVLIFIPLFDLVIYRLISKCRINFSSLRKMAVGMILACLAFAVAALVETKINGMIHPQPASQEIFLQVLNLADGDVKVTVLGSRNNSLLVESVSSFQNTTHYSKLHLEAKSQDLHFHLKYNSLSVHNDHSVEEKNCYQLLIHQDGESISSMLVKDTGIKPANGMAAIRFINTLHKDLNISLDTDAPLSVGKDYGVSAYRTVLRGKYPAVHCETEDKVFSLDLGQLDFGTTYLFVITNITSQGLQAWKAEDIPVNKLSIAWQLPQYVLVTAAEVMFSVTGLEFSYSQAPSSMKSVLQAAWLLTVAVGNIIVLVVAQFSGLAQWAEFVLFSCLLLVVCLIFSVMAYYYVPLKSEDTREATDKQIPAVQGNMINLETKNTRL
Nature of the data set: TP_TRANSPORTER: inhibition of Gly-Sar uptake (Gly-Sar: 10 uM) in PEPT2-expressing SK-N-SH cells.

Substrate in data set [6]: CN(CC(=O)O)C(=O)CN
The description is as §1.

As usually defined, the IC50 is the midpoint of a concentration-inhibition curve. A low value points to greater potency in that assay. In general, Km refers to the concentration of substrate that gives half-maximal velocity.

As to `NCC(=O)NCC(=O)O` (H-Gly-Gly-OH), the Activity result in data set [1] is “substrate [+]”. With `C[C@H](N)C(=O)N[C@@H](CCCCN)C(=O)O` (H-Ala-Lys-OH), in data set [2], the Activity result is “inhibitor [+]”. `NCC(=O)N1CCC[C@H]1C(=O)O` (H-Gly-Pro-OH): the Activity result in data set [1] is “substrate [+]”. `C[C@H](N)C(=O)N[C@@H](CCC(=O)O)C(=O)O` (H-Ala-Glu-OH): the Activity entry in data set [3] was “inhibitor [+]”. For `CC(C)[C@H](NC(=O)[C@H](C)N)C(=O)O` (H-Ala-Val-OH), the Activity entry in data set [4] is “inhibitor [+]”. Take `NCC(=O)N[C@@H](Cc1ccccc1)C(=O)O` (H-Gly-Phe-OH): the Activity entry in data set [1] is “substrate [+]”. With `CC(=O)N[C@@H](CC(=O)O)C(=O)N[C@@H](CCC(=O)O)C(=O)O` [ISOSPAGLUMIC ACID] (Ac-Asp-Glu-OH), in data set [5], the midpoint of inhibition, the IC50, lay at 3 mM.

B1: Solute carrier family 15 member 2 (Rattus norvegicus), Q63424 (protein)
chain: MNPFQKNESKETLFSPVSTEEMLPRPPSPPKKSPPKIFGSSYPVSIAFIVVNEFCERFSYYGMKAVLTLYFLYFLHWNEDTSTSVYHAFSSLCYFTPILGAAIADSWLGKFKTIIYLSLVYVLGHVFKSLGAIPILGGKMLHTILSLVGLSLIALGTGGIKPCVAAFGGDQFEEEHAEARTRYFSVFYLAINAGSLISTFITPMLRGDVKCFGQDCYALAFGVPGLLMVLALVVFAMGSKMYRKPPPEGNIVAQVIKCIWFALCNRFRNRSGDLPKRQHWLDWAAEKYPKHLIADVKALTRVLFLYIPLPMFWALLDQQGSRWTLQANKMNGDLGFFVLQPDQMQVLNPFLVLIFIPLFDLVIYRLISKCRINFSSLRKMAVGMILACLAFAVAALVETKINGMIHPQPASQEIFLQVLNLADGDVKVTVLGSRNNSLLVESVSSFQNTTHYSKLHLEAKSQDLHFHLKYNSLSVHNDHSVEEKNCYQLLIHQDGESISSMLVKDTGIKPANGMAAIRFINTLHKDLNISLDTDAPLSVGKDYGVSAYRTVLRGKYPAVHCETEDKVFSLDLGQLDFGTTYLFVITNITSQGLQAWKAEDIPVNKLSIAWQLPQYVLVTAAEVMFSVTGLEFSYSQAPSSMKSVLQAAWLLTVAVGNIIVLVVAQFSGLAQWAEFVLFSCLLLVVCLIFSVMAYYYVPLKSEDTREATDKQIPAVQGNMINLETKNTRL
B1: the Km in data set [6] stood at 35 µM.
